Legend:
human SGLT2 = molecular target: T1, human SGLT2 (Homo sapiens, UniProt P31639); assay: Assay for SGLT2 inhibition (14C-AMG uptake in CHOK1 cells expressing human SGLT2); format: cell-based; conditions: CHOK1 cells expressing human SGLT2; 14C-AMG uptake, 0.5 mM, 2 hours at 37° C.; read-out: IC50
T1 construct: expressed in transfected cells; host or cells: CHOK1 (Chinese hamster ovary) cells, kept under Geneticin selection
T1 sequence (P31639 1-672): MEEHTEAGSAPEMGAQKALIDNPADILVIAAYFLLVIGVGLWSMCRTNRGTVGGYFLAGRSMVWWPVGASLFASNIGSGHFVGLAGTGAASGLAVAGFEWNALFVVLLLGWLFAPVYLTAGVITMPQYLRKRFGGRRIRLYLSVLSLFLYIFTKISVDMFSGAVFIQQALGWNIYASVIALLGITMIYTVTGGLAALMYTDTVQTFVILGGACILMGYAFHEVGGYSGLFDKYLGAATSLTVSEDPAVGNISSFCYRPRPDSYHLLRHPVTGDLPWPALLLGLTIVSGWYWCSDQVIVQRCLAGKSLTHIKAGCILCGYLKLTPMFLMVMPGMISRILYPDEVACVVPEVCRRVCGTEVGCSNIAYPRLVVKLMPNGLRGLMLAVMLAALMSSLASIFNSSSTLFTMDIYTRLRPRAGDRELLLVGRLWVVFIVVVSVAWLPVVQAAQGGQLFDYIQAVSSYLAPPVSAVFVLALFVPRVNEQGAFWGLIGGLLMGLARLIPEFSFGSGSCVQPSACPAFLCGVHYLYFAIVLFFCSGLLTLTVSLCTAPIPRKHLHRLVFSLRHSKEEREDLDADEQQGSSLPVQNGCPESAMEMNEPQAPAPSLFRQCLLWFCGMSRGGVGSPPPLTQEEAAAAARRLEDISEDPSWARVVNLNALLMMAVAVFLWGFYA
Protocol: 1. Assay for SGLT2 Inhibition
Compounds described in the above examples were used for the SGLT2 inhibition assay.
CHOK1 cells expressing human SGLT2 were seeded in 24-well plates at a density of 400,000 cells/well in F-12 nutrient mixture (Ham's F-12) containing 10% fetal bovine serum, 400 μg/ml Geneticin, 50 units/ml sodium penicillin G (Gibco-BRL) and 50 μg/ml streptomycin sulfate. After 2 days of culture at 37° C. in a humidified atmosphere containing 5% CO2, cells were washed once with the assay buffer (137 mM NaCl, 5 mM KCl, 1 mM CaCl2, 1 mM MgCl2, 50 mM Hepes, and 20 mM Tris, pH 7.4) and incubated with 250 μl of the buffer containing test compounds for 10 min at 37° C. Test compounds were dissolved in DMSO. The final concentration of DMSO was 0.5%. The transport reaction was initiated by addition of 50 μl [^14C]-methyl-α-D-glucopyranoside (^14C-AMG) solution (final concentration, 0.5 mM). After incubation for 2 hours at 37° C., the uptake was stopped by aspiration of the incubation mixture, the cells were washed three times with ice-cold PBS. Then, cells were solubilized with 0.3 N NaOH and aliquots were taken for determination of radioactivity by a liquid scintillation counter. Nonspecific AMG uptake was defined as that which occurred in the presence of 100 μM of phlorizin, a specific inhibitor of sodium-dependent glucose cotransporter. Specific uptake was normalized for the protein concentrations measured by the method of Bradford. The 50% inhibitory concentration (IC50) values were calculated from dose-response curves by least square method.

Sprague-Dawley (SD) rats = assay: Urinary glucose excretion test in rats; format: in vivo, rat; conditions: male SD rats; 30 mg/kg by oral gavage; urine collected for 24 hours; daily amount of glucose excreted in urine per individual
Protocol: 2. Urinary Glucose Excretion Test in Rats Test Compounds:
Compounds described in the above examples were used for the Urinary glucose excretion test in rats.
6-week-old male Sprague-Dawley (SD) rats were housed in individual metabolic cages with free access to food and water from 2 days prior to the experiment. On the morning of the experiment, rats were administered vehicle (0.2% carboxymethyl cellulose solution containing 0.2% Tween80) or test compounds (30 mg/kg) by oral gavage at a volume of 10 ml/kg. Then, urine of the rat was collected for 24 hours, and the urine volume was measured. Subsequently, the glucose concentration in urine was quantified using the enzymatic assay kit and the daily amount of glucose excreted in urine per individual was calculated.

Compound	IC50 (human SGLT2)	Urinary glucose (Sprague-Dawley (SD) rats)
CCc1ccc(Cc2cn([C@@H]3O[C@H](CO)[C@@H](O)[C@H](O)[C@H]3O)c3cccc(Cl)c23)cc1 [Example 1, 4-Chloro-3-(4-ethylphenylmethyl)-1-(β-D-glucopyranosyl)-indole]	2.9 nM	
CCc1ccc(Cc2cn([C@@H]3O[C@H](CO)[C@@H](O)[C@H](O)[C@H]3O)c3cccc(F)c23)cc1 [Example 2, 3-(4-Ethylphenylmethyl)-4-fluoro-1-(β-D-glucopyranosyl)-indole]	5.2 nM	A (A≧2400 mg)
CCOc1ccc(Cc2cn([C@@H]3O[C@H](CO)[C@@H](O)[C@H](O)[C@H]3O)c3cccc(Cl)c23)cc1 [Example 3, 4-Chloro-3-(4-ethoxyphenylmethyl)-1-(β-D-glucopyranosyl)-indole]	3.5 nM	B (2400 mg>B≧2000 mg)
CSc1ccc(Cc2cn([C@@H]3O[C@H](CO)[C@@H](O)[C@H](O)[C@H]3O)c3cccc(Cl)c23)cc1 [Example 4, 4-Chloro-3-(4-(methylthio)phenylmethyl)-1-(β-D-gluco-pyranosyl)indole]	1.7 nM	
COc1ccc(Cc2cn([C@@H]3O[C@H](CO)[C@@H](O)[C@H](O)[C@H]3O)c3cccc(Cl)c23)cc1 [Example 5, 4-Chloro-3-(4-methoxyphenylmethyl)-1-(β-D-glucopyranosyl)-indole]	1.8 nM	
OC[C@H]1O[C@@H](n2cc(Cc3ccc(Cl)cc3)c3c(Cl)cccc32)[C@H](O)[C@@H](O)[C@@H]1O [Example 6, 4-Chloro-3-(4-chlorophenylmethyl)-1-(β-D-glucopyranosyl)-indole]	9.8 nM	A (A≧2400 mg)
OC[C@H]1O[C@@H](n2cc(Cc3ccc(Br)s3)c3c(Cl)cccc32)[C@H](O)[C@@H](O)[C@@H]1O [Example 7, 3-(5-Bromo-2-thienylmethyl)-4-chloro-1-(β-D-glucopyranosyl)-indole]	5 nM	B (2400 mg>B≧2000 mg)
CCOc1ccc(Cc2cn([C@@H]3O[C@H](CO)[C@@H](O)[C@H](O)[C@H]3O)c3cccc(F)c23)cc1 [Example 8, 3-(4-Ethoxyphenylmethyl)-4-fluoro-1-(β-D-glucopyranosyl)-indole]	4.8 nM	A (A≧2400 mg)
COc1ccc(Cc2cn([C@@H]3O[C@H](CO)[C@@H](O)[C@H](O)[C@H]3O)c3cccc(F)c23)cc1 [Example 9, 4-Fluoro-3-(4-methoxyphenylmethyl)-1-(β-D-glucopyranosyl)-indole]	3.3 nM	
CSc1ccc(Cc2cn([C@@H]3O[C@H](CO)[C@@H](O)[C@H](O)[C@H]3O)c3cccc(F)c23)cc1 [Example 10, 4-Fluoro-3-(4-(methylthio)phenylmethyl)-1-(β-D-gluco-pyranosyl)indole]	2.4 nM	
Cc1ccc(Cc2cn([C@@H]3O[C@H](CO)[C@@H](O)[C@H](O)[C@H]3O)c3cccc(Cl)c23)cc1 [Example 11, 4-Chloro-3-(4-methylphenylmethyl)-1-(β-D-glucopyranosyl)-indole]	2.4 nM	
OC[C@H]1O[C@@H](n2cc(Cc3ccc(OCCF)cc3)c3c(F)cccc32)[C@H](O)[C@@H](O)[C@@H]1O [Example 12, 4-Fluoro-3-(4-(2-fluoroethyloxy)phenylmethyl)-1-(β-D-gluco-pyranosyl)indole]	4.1 nM	
OC[C@H]1O[C@@H](n2cc(Cc3ccc(OCCCl)cc3)c3c(F)cccc32)[C@H](O)[C@@H](O)[C@@H]1O [Example 13, 3-(4-(2-Chloroethyloxy)phenylmethyl)-4-fluoro-1-(β-D-gluco-pyranosyl)indole]	6 nM	B (2400 mg>B≧2000 mg)
OC[C@H]1O[C@@H](n2cc(Cc3ccc(Br)cc3)c3c(Cl)cccc32)[C@H](O)[C@@H](O)[C@@H]1O [Example 14, 3-(4-Bromophenylmethyl)-4-chloro-1-(β-D-glucopyranosyl)-indole]	8.1 nM	A (A≧2400 mg)
OC[C@H]1O[C@@H](n2cc(Cc3ccc4occc4c3)c3c(Cl)cccc32)[C@H](O)[C@@H](O)[C@@H]1O [Example 15, 3-(Benzo[b]furan-5-yl-methyl)-4-chloro-1-(β-D-glucopyranosyl)indole]	3.3 nM	A (A≧2400 mg)
CCc1ccc(Cc2cn([C@@H]3O[C@H](CO)[C@@H](O)[C@H](O)[C@H]3O)c3cccc(C)c23)cc1 [Example 23, 3-(4-Ethylphenylmethyl)-4-methyl-1-(β-D-glucopyranosyl)-indole]	1.1 nM	

Second part, led by results:

IC50 (human SGLT2)	Compound	Urinary glucose (Sprague-Dawley (SD) rats)
2.1 nM	CCc1ccc(Cc2cn([C@@H]3O[C@H](CO)[C@@H](O)[C@H](O)[C@H]3O)c3cccc(Cl)c23)s1 [Example 16, 4-Chloro-3-(5-ethylthiophen-2-yl-methyl)-1-(β-D-gluco-pyranosyl)indole]	
2.5 nM	OC[C@H]1O[C@@H](n2cc(Cc3ccc(OCCF)cc3)c3c(Cl)cccc32)[C@H](O)[C@@H](O)[C@@H]1O [Example 17, 4-Chloro-3-(4-(2-Fluoroethyloxy)phenylmethyl)-1-(β-D-glucopyranosyl)indole]	
4.1 nM	CCc1ccc(Cc2cn([C@@H]3O[C@H](CO)[C@@H](O)[C@H](O)[C@H]3O)c3cccc(F)c23)s1 [Example 18, 3-(5-Ethylthiophen-2-yl-methyl)-4-fluoro-1-(β-D-gluco-pyranosyl)indole]	B (2400 mg>B≧2000 mg)
1.8 nM	OC[C@H]1O[C@@H](n2cc(Cc3ccc4c(c3)CCO4)c3c(Cl)cccc32)[C@H](O)[C@@H](O)[C@@H]1O [Example 21, 4-Chloro-3-(2,3-dihydrobenzo[b]furan-5-yl-methyl)-1-(β-D-glucopyranosyl)indole]	
3.7 nM	CCc1ccc(Cc2cn([C@@H]3O[C@H](CO)[C@@H](O)[C@H](O)[C@H]3O)c3cccc(Br)c23)cc1 [Example 22, 4-Bromo-3-(4-ethylphenylmethyl)-1-(β-D-glucopyranosyl)indole]	
6.3 nM	Cc1ccc(Cc2cn([C@@H]3O[C@H](CO)[C@@H](O)[C@H](O)[C@H]3O)c3cccc(F)c23)cc1 [Example 24, 4-Fluoro-3-(4-methylphenylmethyl)-1-(β-D-glucopyranosyl)-indole]	
2.5 nM	Cc1cccc2c1c(Cc1ccc(-c3cccc(C#N)c3)s1)cn2[C@@H]1O[C@H](CO)[C@@H](O)[C@H](O)[C@H]1O [Example 45, 3-(5-(3-Cyanophenyl)-thiophen-2-yl-methyl)-4-methyl-1-(β-D-glucopyranosyl)indole]	
19 nM	Cc1cccc2c1c(Cc1ccc(-c3ccc(F)cc3)s1)cn2[C@@H]1O[C@H](CO)[C@@H](O)[C@H](O)[C@H]1O [Example 48, 3-(5-(4-Fluorophenyl)thiophen-2-yl-methyl)-4-methyl-1-(β-D-glucopyranosyl)indole]	
8.8 nM	Cc1cccc2c1c(Cc1ccc(-c3ccc(F)nc3)s1)cn2[C@@H]1O[C@H](CO)[C@@H](O)[C@H](O)[C@H]1O [Example 49, 3-(5-(6-Fluoro-3-pyridyl)thiophen-2-yl-methyl)-4-methyl-1-(β-D-glucopyranosyl)indole]	
11 nM	Cc1cccc2c1c(Cc1ccc(-c3ccccc3)s1)cn2[C@@H]1O[C@H](CO)[C@@H](O)[C@H](O)[C@H]1O [Example 50, 4-Methyl-3-(5-phenylthiophen-2-yl-methyl)-1-(β-D-gluco-pyranosyl)indole]	
6.1 nM	Cc1cccc2c1c(Cc1ccc(-c3cccs3)s1)cn2[C@@H]1O[C@H](CO)[C@@H](O)[C@H](O)[C@H]1O [Example 51, 4-Methyl-3-(5-(2-thienyl)thiophen-2-yl-methyl)-1-(β-D-gluco-pyranosyl)indole]	
